# Measurements published in PubChem BioAssay (NCI).
#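 Compound exposure: 48 hours, 5 concentrations, 96-well plates. TGI denotes the concentration required for complete inhibition of growth.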
# Experiments:
# Assay in all cases: NCI tumour cell line growth inhibition, 48 h
# NCI/ADR-RES ovarian = tested on: NCI/ADR-RES ovarian
# SK-MEL-28 melanoma = tested on: SK-MEL-28 melanoma
# HCT-116 colon = tested on: HCT-116 colon
# UO-31 renal = tested on: UO-31 renal
# SNB-19 CNS = tested on: SNB-19 CNS
# SF-268 CNS = tested on: SF-268 CNS
# K-562 leukemia = tested on: K-562 leukemia
# HS 578T breast = tested on: HS 578T breast
# HCT-15 colon = tested on: HCT-15 colon
# MOLT-4 leukemia = tested on: MOLT-4 leukemia
# NCI-H522 lung = tested on: NCI-H522 lung
# NCI-H23 lung = tested on: NCI-H23 lung
# IGROV1 ovarian = tested on: IGROV1 ovarian
# HL-60(TB) leukemia = tested on: HL-60(TB) leukemia
# 786-0 renal = tested on: 786-0 renal
# SK-MEL-2 melanoma = tested on: SK-MEL-2 melanoma
# T-47D breast = tested on: T-47D breast
# A549 NSCLC = tested on: A549 NSCLC
# ACHN renal = tested on: ACHN renal
# KM12 colon = tested on: KM12 colon
# OVCAR-4 ovarian = tested on: OVCAR-4 ovarian
# CAKI-1 renal = tested on: CAKI-1 renal
# SN12C renal = tested on: SN12C renal
# A498 renal = tested on: A498 renal
# NCI-H460 lung = tested on: NCI-H460 lung
# M14 melanoma = tested on: M14 melanoma
# MDA-N = tested on: MDA-N
# RXF 393 renal = tested on: RXF 393 renal
# UACC-62 melanoma = tested on: UACC-62 melanoma
# HCC-2998 colon = tested on: HCC-2998 colon
# SW-620 colon = tested on: SW-620 colon
# NCI-H226 lung = tested on: NCI-H226 lung
# SK-OV-3 ovarian = tested on: SK-OV-3 ovarian
# U251 CNS = tested on: U251 CNS
# BT-549 breast = tested on: BT-549 breast
# SNB-75 CNS = tested on: SNB-75 CNS
# HOP-62 NSCLC = tested on: HOP-62 NSCLC
# COLO 205 colon = tested on: COLO 205 colon
# MDA-MB-231 breast = tested on: MDA-MB-231 breast
# EKVX NSCLC = tested on: EKVX NSCLC
# HOP-92 NSCLC = tested on: HOP-92 NSCLC
# MDA-MB-435 = tested on: MDA-MB-435
# TK-10 renal = tested on: TK-10 renal
# OVCAR-3 ovarian = tested on: OVCAR-3 ovarian
# DU-145 prostate = tested on: DU-145 prostate
# RPMI-8226 leukemia = tested on: RPMI-8226 leukemia
# MCF7 breast = tested on: MCF7 breast
# PC-3 prostate = tested on: PC-3 prostate
# SF-539 CNS = tested on: SF-539 CNS
# HT29 colon = tested on: HT29 colon
# CCRF-CEM leukemia = tested on: CCRF-CEM leukemia
# MALME-3M melanoma = tested on: MALME-3M melanoma
# OVCAR-5 ovarian = tested on: OVCAR-5 ovarian
# SF-295 CNS = tested on: SF-295 CNS
# UACC-257 melanoma = tested on: UACC-257 melanoma
# SR leukemia = tested on: SR leukemia
# OVCAR-8 ovarian = tested on: OVCAR-8 ovarian
# LOX IMVI melanoma = tested on: LOX IMVI melanoma
# SK-MEL-5 melanoma = tested on: SK-MEL-5 melanoma
compound,measurement,setting,value
COC(=O)C(Cc1c[nH]c2ccccc12)NC(=O)c1ccc(-c2ccc(Cl)cc2Cl)o1 (configuration not stated),TGI,NCI/ADR-RES ovarian,> 100 µM
same,TGI,SK-MEL-28 melanoma,> 100 µM
same,TGI,HCT-116 colon,> 100 µM
same,TGI,UO-31 renal,> 100 µM
same,TGI,SNB-19 CNS,> 100 µM
same,TGI,SF-268 CNS,> 100 µM
same,TGI,K-562 leukemia,> 100 µM
same,TGI,HS 578T breast,> 100 µM
same,TGI,HCT-15 colon,> 100 µM
same,TGI,MOLT-4 leukemia,> 100 µM
same,TGI,NCI-H522 lung,> 100 µM
same,TGI,NCI-H23 lung,> 100 µM
same,TGI,IGROV1 ovarian,> 100 µM
same,TGI,HL-60(TB) leukemia,> 100 µM
same,TGI,786-0 renal,> 100 µM
same,TGI,SK-MEL-2 melanoma,> 100 µM
same,TGI,T-47D breast,> 100 µM
same,TGI,A549 NSCLC,> 100 µM
same,TGI,ACHN renal,> 100 µM
same,TGI,KM12 colon,> 100 µM
same,TGI,OVCAR-4 ovarian,> 100 µM
same,TGI,CAKI-1 renal,> 100 µM
same,TGI,SN12C renal,> 100 µM
same,TGI,A498 renal,67.9 µM
same,TGI,NCI-H460 lung,> 100 µM
same,TGI,M14 melanoma,> 100 µM
same,TGI,MDA-N,> 100 µM
same,TGI,RXF 393 renal,> 100 µM
same,TGI,UACC-62 melanoma,> 100 µM
same,TGI,HCC-2998 colon,48.5 µM
same,TGI,SW-620 colon,> 100 µM
same,TGI,NCI-H226 lung,> 100 µM
same,TGI,SK-OV-3 ovarian,> 100 µM
same,TGI,U251 CNS,> 100 µM
same,TGI,BT-549 breast,> 100 µM
same,TGI,SNB-75 CNS,> 100 µM
same,TGI,HOP-62 NSCLC,> 100 µM
same,TGI,COLO 205 colon,> 100 µM
same,TGI,MDA-MB-231 breast,> 100 µM
same,TGI,EKVX NSCLC,> 100 µM
same,TGI,HOP-92 NSCLC,71.4 µM
same,TGI,MDA-MB-435,> 100 µM
same,TGI,TK-10 renal,> 100 µM
same,TGI,OVCAR-3 ovarian,> 100 µM
same,TGI,DU-145 prostate,> 100 µM
same,TGI,RPMI-8226 leukemia,> 100 µM
same,TGI,MCF7 breast,> 100 µM
same,TGI,PC-3 prostate,49.5 µM
same,TGI,SF-539 CNS,91 µM
same,TGI,HT29 colon,> 100 µM
same,TGI,CCRF-CEM leukemia,> 100 µM
same,TGI,MALME-3M melanoma,> 100 µM
same,TGI,OVCAR-5 ovarian,> 100 µM
same,TGI,SF-295 CNS,> 100 µM
same,TGI,UACC-257 melanoma,99.3 µM
same,TGI,SR leukemia,> 100 µM
same,TGI,OVCAR-8 ovarian,> 100 µM
same,TGI,LOX IMVI melanoma,> 100 µM
Cn1cnc([N+](=O)[O-])c1Sc1nc(N)nc2c1ncn2C1CC(O)C(CO)O1 (configuration not stated),TGI,NCI/ADR-RES ovarian,> 100 µM
same,TGI,SK-MEL-28 melanoma,> 100 µM
same,TGI,HCT-116 colon,> 100 µM
same,TGI,UO-31 renal,44.9 µM
same,TGI,SNB-19 CNS,> 100 µM
same,TGI,SF-268 CNS,> 100 µM
same,TGI,K-562 leukemia,> 100 µM
same,TGI,HS 578T breast,> 100 µM
same,TGI,HCT-15 colon,> 100 µM
same,TGI,MOLT-4 leukemia,16.4 µM
same,TGI,NCI-H522 lung,14.4 µM
same,TGI,NCI-H23 lung,> 55 µM
same,TGI,IGROV1 ovarian,> 100 µM
same,TGI,HL-60(TB) leukemia,> 47.1 µM
same,TGI,786-0 renal,> 100 µM
same,TGI,SK-MEL-2 melanoma,25.7 µM
same,TGI,T-47D breast,> 63.9 µM
same,TGI,A549 NSCLC,> 100 µM
same,TGI,ACHN renal,> 92.8 µM
same,TGI,KM12 colon,12.1 µM
same,TGI,OVCAR-4 ovarian,> 83.1 µM
same,TGI,CAKI-1 renal,> 100 µM
same,TGI,SN12C renal,> 100 µM
same,TGI,A498 renal,71.2 µM
same,TGI,NCI-H460 lung,> 40 µM
same,TGI,M14 melanoma,> 58.6 µM
same,TGI,MDA-N,> 100 µM
same,TGI,RXF 393 renal,> 100 µM
same,TGI,UACC-62 melanoma,> 20.8 µM
same,TGI,HCC-2998 colon,> 100 µM
same,TGI,SW-620 colon,> 100 µM
same,TGI,NCI-H226 lung,98.2 µM
same,TGI,SK-OV-3 ovarian,> 79.1 µM
same,TGI,U251 CNS,> 100 µM
same,TGI,BT-549 breast,> 100 µM
same,TGI,SNB-75 CNS,37.7 µM
same,TGI,HOP-62 NSCLC,> 100 µM
same,TGI,COLO 205 colon,> 34.3 µM
same,TGI,MDA-MB-231 breast,> 100 µM
same,TGI,EKVX NSCLC,> 100 µM
same,TGI,SK-MEL-5 melanoma,22.9 µM
same,TGI,HOP-92 NSCLC,> 100 µM
same,TGI,MDA-MB-435,> 58.8 µM
same,TGI,TK-10 renal,> 100 µM
same,TGI,OVCAR-3 ovarian,> 36.4 µM
same,TGI,DU-145 prostate,> 50.8 µM
same,TGI,RPMI-8226 leukemia,36.2 µM
same,TGI,MCF7 breast,> 54.2 µM
same,TGI,PC-3 prostate,> 100 µM
same,TGI,SF-539 CNS,> 100 µM
same,TGI,HT29 colon,> 100 µM
same,TGI,CCRF-CEM leukemia,> 100 µM
same,TGI,MALME-3M melanoma,> 100 µM
same,TGI,OVCAR-5 ovarian,> 100 µM
same,TGI,SF-295 CNS,> 100 µM
same,TGI,UACC-257 melanoma,> 100 µM
same,TGI,SR leukemia,18.7 µM
same,TGI,OVCAR-8 ovarian,> 100 µM
same,TGI,LOX IMVI melanoma,> 100 µM
